Experimental data reported in the supplement of paper PMC10883282.
± gives the standard deviation of the averaged measurements.

What was measured:
Assay in all cases: relative viability vs DMSO control (72 h) (fraction); higher = more viable cells
VA-ES-BJ = system: VA-ES-BJ
Method in brief: (§1)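 Sarcoma cell lines were grown in 384-well plates seeded toward 80–90% confluence and exposed 24 h later to serially diluted compound. After 72 h at 37 °C and 5% CO2, with 0.1% DMSO vehicle and a 5 µM positive control on the plates, ATPLite was read. Relative viability, given as percent growth averaged over up to triplicate wells, was rescaled so that 1 is full and 0 is none.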

SK-LMS-1 = system: SK-LMS-1
Method in brief: as §1

SW982 = system: SW982
Method in brief: as §1

MES-SA = system: MES-SA
Method in brief: as §1

SW1353 = system: SW1353
Method in brief: as §1

SK-ES-1 = system: SK-ES-1
Method in brief: as §1

RD-ES = system: RD-ES
Method in brief: as §1

G401 = system: G401
Method in brief: as §1

HT1080 = system: HT1080
Method in brief: as §1

KHOS-240S = system: KHOS-240S
Method in brief: as §1

SYO-1 = system: SYO-1
Method in brief: as §1

RD = system: RD
Method in brief: as §1

CNC(=O)c1c(C)oc2cc(Oc3ncnc4cc(OC)c(OC)cc34)ccc12 [Fruquintinib]
Settings	relative viability
G401, 0.00017 µM	0.988 ± 0.017
G401, 0.00051 µM	1.02 ± 0.065
G401, 0.00152 µM	1.02 ± 0.064
G401, 0.00457 µM	0.986 ± 0.029
G401, 0.01372 µM	1.03 ± 0.051
G401, 0.04115 µM	1.01 ± 0.019
G401, 0.1235 µM	0.965 ± 0.025
G401, 0.3704 µM	0.953 ± 0.035
G401, 1.111 µM	0.9 ± 0.058
G401, 3.333 µM	0.698 ± 0.0094
G401, 10 µM	0.57 ± 0.029
HT1080, 0.00017 µM	1.08 ± 0.038
HT1080, 0.00051 µM	1.06 ± 0.031
HT1080, 0.00152 µM	1.058 ± 0.0099
HT1080, 0.00457 µM	1.04 ± 0.034
HT1080, 0.01372 µM	1.07 ± 0.05
HT1080, 0.04115 µM	1.04 ± 0.026
HT1080, 0.1235 µM	1.03 ± 0.035
HT1080, 0.3704 µM	1.04 ± 0.03
HT1080, 1.111 µM	1.054 ± 0.0096
HT1080, 3.333 µM	1.02 ± 0.026
HT1080, 10 µM	1.01 ± 0.036
KHOS-240S, 0.00017 µM	1.06 ± 0.031
KHOS-240S, 0.00051 µM	1.07 ± 0.034
KHOS-240S, 0.00152 µM	1.08 ± 0.035
KHOS-240S, 0.00457 µM	1.07 ± 0.018
KHOS-240S, 0.01372 µM	1.07 ± 0.043
KHOS-240S, 0.04115 µM	1.08 ± 0.022
KHOS-240S, 0.1235 µM	1.03 ± 0.019
KHOS-240S, 0.3704 µM	0.987 ± 0.028
KHOS-240S, 1.111 µM	0.9394 ± 0.0081
KHOS-240S, 3.333 µM	0.8 ± 0.035
KHOS-240S, 10 µM	0.755 ± 0.051
MES-SA, 0.00017 µM	0.96 ± 0.019
MES-SA, 0.00051 µM	0.975 ± 0.029
MES-SA, 0.00152 µM	0.943 ± 0.04
MES-SA, 0.00457 µM	0.935 ± 0.037
MES-SA, 0.01372 µM	0.947 ± 0.02
MES-SA, 0.04115 µM	0.9442 ± 0.0073
MES-SA, 0.1235 µM	0.922 ± 0.034
MES-SA, 0.3704 µM	0.929 ± 0.03
MES-SA, 1.111 µM	0.9218 ± 0.0043
MES-SA, 3.333 µM	0.855 ± 0.022
MES-SA, 10 µM	0.806 ± 0.036
RD, 0.00017 µM	1.03 ± 0.052
RD, 0.00051 µM	1.09 ± 0.03
RD, 0.00152 µM	1.09 ± 0.067
RD, 0.00457 µM	1.1 ± 0.034
RD, 0.01372 µM	1.07 ± 0.057
RD, 0.04115 µM	1.08 ± 0.033
RD, 0.1235 µM	1.06 ± 0.021
RD, 0.3704 µM	1.089 ± 0.01
RD, 1.111 µM	1.08 ± 0.054
RD, 3.333 µM	1.08 ± 0.041
RD, 10 µM	1.04 ± 0.015
RD-ES, 0.00017 µM	0.93 ± 0.063
RD-ES, 0.00051 µM	0.979 ± 0.037
RD-ES, 0.00152 µM	0.968 ± 0.029
RD-ES, 0.00457 µM	0.952 ± 0.027
RD-ES, 0.01372 µM	0.971 ± 0.035
RD-ES, 0.04115 µM	0.935 ± 0.02
RD-ES, 0.1235 µM	0.968 ± 0.04
RD-ES, 0.3704 µM	0.934 ± 0.05
RD-ES, 1.111 µM	0.945 ± 0.054
RD-ES, 3.333 µM	0.917 ± 0.02
RD-ES, 10 µM	0.928 ± 0.04
SK-ES-1, 0.00017 µM	1.01 ± 0.03
SK-ES-1, 0.00051 µM	1.07 ± 0.017
SK-ES-1, 0.00152 µM	1.04 ± 0.059
SK-ES-1, 0.00457 µM	1.07 ± 0.091
SK-ES-1, 0.01372 µM	1.06 ± 0.05
SK-ES-1, 0.04115 µM	1.1 ± 0.08
SK-ES-1, 0.1235 µM	1.05 ± 0.038
SK-ES-1, 0.3704 µM	1 ± 0.045
SK-ES-1, 1.111 µM	0.971 ± 0.07
SK-ES-1, 3.333 µM	0.951 ± 0.038
SK-ES-1, 10 µM	0.926 ± 0.025
SK-LMS-1, 0.00017 µM	1.11 ± 0.037
SK-LMS-1, 0.00051 µM	1.1 ± 0.024
SK-LMS-1, 0.00152 µM	1.106 ± 0.0049
SK-LMS-1, 0.00457 µM	1.1 ± 0.024
SK-LMS-1, 0.01372 µM	1.1 ± 0.045
SK-LMS-1, 0.04115 µM	1.07 ± 0.066
SK-LMS-1, 0.1235 µM	1.07 ± 0.033
SK-LMS-1, 0.3704 µM	1.04 ± 0.051
SK-LMS-1, 1.111 µM	1.01 ± 0.055
SK-LMS-1, 3.333 µM	0.976 ± 0.07
SK-LMS-1, 10 µM	0.991 ± 0.06
SW982, 0.00017 µM	1.03 ± 0.017
SW982, 0.00051 µM	1.03 ± 0.029
SW982, 0.00152 µM	1.04 ± 0.023
SW982, 0.00457 µM	1.02 ± 0.049
SW982, 0.01372 µM	1.03 ± 0.035
SW982, 0.04115 µM	1.04 ± 0.042
SW982, 0.1235 µM	1.048 ± 0.0066
SW982, 0.3704 µM	1.04 ± 0.057
SW982, 1.111 µM	1.04 ± 0.019
SW982, 3.333 µM	0.992 ± 0.03
SW982, 10 µM	0.925 ± 0.044
SW1353, 0.00017 µM	1.051 ± 0.005
SW1353, 0.00051 µM	1.02 ± 0.033
SW1353, 0.00152 µM	1.02 ± 0.039
SW1353, 0.00457 µM	1.01 ± 0.031
SW1353, 0.01372 µM	1.02 ± 0.052
SW1353, 0.04115 µM	1.01 ± 0.04
SW1353, 0.1235 µM	0.997 ± 0.04
SW1353, 0.3704 µM	0.925 ± 0.063
SW1353, 1.111 µM	0.863 ± 0.05
SW1353, 3.333 µM	0.746 ± 0.028
SW1353, 10 µM	0.763 ± 0.029
SYO-1, 0.00017 µM	1.01 ± 0.038
SYO-1, 0.00051 µM	1.034 ± 0.003
SYO-1, 0.00152 µM	0.971 ± 0.036
SYO-1, 0.00457 µM	0.963 ± 0.068
SYO-1, 0.01372 µM	0.921 ± 0.039
SYO-1, 0.04115 µM	0.918 ± 0.043
SYO-1, 0.1235 µM	0.817 ± 0.046
SYO-1, 0.3704 µM	0.651 ± 0.024
SYO-1, 1.111 µM	0.498 ± 0.059
SYO-1, 3.333 µM	0.417 ± 0.043
SYO-1, 10 µM	0.402 ± 0.05
VA-ES-BJ, 0.00017 µM	1.05 ± 0.011
VA-ES-BJ, 0.00051 µM	1.02 ± 0.035
VA-ES-BJ, 0.00152 µM	1.03 ± 0.014
VA-ES-BJ, 0.00457 µM	1 ± 0.021
VA-ES-BJ, 0.01372 µM	0.997 ± 0.033
VA-ES-BJ, 0.04115 µM	1.01 ± 0.028
VA-ES-BJ, 0.1235 µM	0.996 ± 0.023
VA-ES-BJ, 0.3704 µM	1.03 ± 0.023
VA-ES-BJ, 1.111 µM	0.995 ± 0.018
VA-ES-BJ, 3.333 µM	0.953 ± 0.034
VA-ES-BJ, 10 µM	0.936 ± 0.029
